Measurements reported in US6479435B1, “Diaryl ethers and processes for their preparation and herbicidal and desiccant compositions containing them” (ISK Americas Incorporated, priority 1997, dated 2002).

Assays:
Format in all cases: in vivo
[1] = system: upland rice (Oryza sp., var.Tebonnet, RICE); assay: Post-emerge greenhouse test, crop damage rating; details: 14 days after application, scale 0-100
How it was run: (§1)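 Compounds in acetone with 0.25% v/v non-ionic surfactant were track-sprayed at 187 l/ha over plants at the 2-3 leaf stage, at 63 to 1000 g ai/ha. Pots were bottom-watered. Injury was scored visually 14 days later on a 0-100 scale, where 0 is no damage and 100 is complete plant death.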

[2] = system: field corn (Zea mays L., var. Dekalb 535, CORN); assay: Post-emerge greenhouse test, crop damage rating; details: 14 days after application, scale 0-100
How it was run: as §1

[3] = system: soybean (Glycine max L., var. Pella 86, SOY); assay: Post-emerge greenhouse test, crop damage rating; set-up: key to crop damage rating SOY: 0-100 scale: 0 = no damage, 100 = complete death of all plants; details: 14 days after application, scale 0-100
How it was run: as §1

[4] = system: Johnsongrass (Sorghum halepense, SORHA); assay: Pre-emerge greenhouse herbicide test, phytotoxicity rating; details: 14 days after application, rating scale 0-100
How it was run: (§2)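 Seeds sown in sandy loam mix one day before track-sprayer application of compounds in acetone at 125–1000 g ai/ha (187 l/ha), then surface-watered to incorporate and bottom-watered. Visual rating 14 days after application on a 0–100 scale (0 = no damage, 100 = all plants dead).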

[5] = system: lambsquarters (Chenopodium album, CHEAL); assay: as above; details: 14 days after application, rating scale 0-100
How it was run: as §2

[6] = system: common ragweed (Ambrosia artemisiifolia L., AMBEL); assay: as above; details: 14 days after application, rating scale 0-100
How it was run: as §2

[7] = system: sicklepod (Cassia obtusifolia, CASOB); assay: as above; details: 14 days after application, rating scale 0-100
How it was run: as §2

[8] = system: large crabgrass (Digitaria sanguinalis, DIGSA); assay: as above; details: 14 days after application, rating scale 0-100
How it was run: as §2

[9] = system: green foxtail (Setaria viridis, SETVI); assay: as above; details: 14 days after application, rating scale 0-100
How it was run: as §2

[10] = system: barnyardgrass (Echinochloa crusgalli, ECHCG); assay: as above; details: 14 days after application, rating scale 0-100
How it was run: as §2

[11] = system: redroot pigweed (Amaranthus retroflexus, AMARE); assay: as above; details: 14 days after application, rating scale 0-100
How it was run: as §2

[12] = system: ivyleaf morningglory (Ipomoea hederacea, IPOHE); assay: as above; details: 14 days after application, rating scale 0-100
How it was run: as §2

[13] = system: velvetleaf (Abutilon theophrasti, ABUTH); assay: as above; details: 14 days after application, rating scale 0-100
How it was run: as §2

[14] = system: common ragweed (Ambrosia artemisiifolia L., AMBEL); assay: Post-emerge greenhouse herbicide test, phytotoxicity rating; details: 14 days after application, scale 0-100
How it was run: as §1

[15] = system: upland rice (Oryza sp., var.Tebonnet, RICE); assay: Pre-emerge greenhouse test, crop damage rating; details: 14 days after application, rating scale 0-100
How it was run: as §2

[16] = system: field corn (Zea mays L., var. Dekalb 535, CORN); assay: Pre-emerge greenhouse test, crop damage rating; details: 14 days after application, rating scale 0-100
How it was run: as §2

[17] = system: soybean (Glycine max L., var. Pella 86, SOY); assay: Pre-emerge greenhouse test, crop damage rating; set-up: key to SOY crop damage rating: 0 = no damage, 100 = complete death of all plants; details: 14 days after application, rating scale 0-100
How it was run: as §2

[18] = system: Johnsongrass (Sorghum halepense, SORHA); assay: Post-emerge greenhouse herbicide test, phytotoxicity rating; details: 14 days after application, scale 0-100
How it was run: as §1

[19] = system: lambsquarters (Chenopodium album, CHEAL); assay: as above; details: 14 days after application, scale 0-100
How it was run: as §1

[20] = system: sicklepod (Cassia obtusifolia, CASOB); assay: as above; details: 14 days after application, scale 0-100
How it was run: as §1

[21] = system: large crabgrass (Digitaria sanguinalis, DIGSA); assay: as above; details: 14 days after application, scale 0-100
How it was run: as §1

[22] = system: green foxtail (Setaria viridis, SETVI); assay: as above; details: 14 days after application, scale 0-100
How it was run: as §1

[23] = system: barnyardgrass (Echinochloa crusgalli, ECHCG); assay: as above; details: 14 days after application, scale 0-100
How it was run: as §1

[24] = system: redroot pigweed (Amaranthus retroflexus, AMARE); assay: as above; details: 14 days after application, scale 0-100
How it was run: as §1

[25] = system: ivyleaf morningglory (Ipomoea hederacea, IPOHE); assay: as above; details: 14 days after application, scale 0-100
How it was run: as §1

[26] = system: velvetleaf (Abutilon theophrasti, ABUTH); assay: as above; details: 14 days after application, scale 0-100
How it was run: as §1

O=c1n(-c2cc(Oc3nccc(C(F)(F)F)n3)c(Cl)cc2F)c(=S)n2n1CCCC2 [Compound 8-30]
10: CORN crop damage rating ([16]; Rate 125 g al/ha) | phytotoxicity rating DIGSA ([21]; rate 500 g ai/ha) | phytotoxicity rating ECHCG ([23]; rate 63 g ai/ha)
70: DIGSA phytotoxicity rating ([8]; Rate 125 g al/ha)
99: SORHA phytotoxicity rating ([4]; Rate 500 g al/ha) | AMBEL phytotoxicity rating ([6]; Rate 500 g al/ha) | ECHCG phytotoxicity rating ([10]; Rate 500 g al/ha) | phytotoxicity rating AMBEL ([14]; rate 500 g ai/ha)
40: crop damage rating CORN ([2]; rate 500 g ai/ha) | SORHA phytotoxicity rating ([4]; Rate 125 g al/ha) | ECHCG phytotoxicity rating ([10]; Rate 125 g al/ha) | phytotoxicity rating ECHCG ([23]; rate 500 g ai/ha)
5: crop damage rating RICE ([1]; rate 63 g ai/ha)
60: phytotoxicity rating SETVI ([22]; rate 63 g ai/ha)
20: RICE crop damage rating ([15]; Rate 125 g al/ha) | CORN crop damage rating ([16]; Rate 500 g al/ha) | phytotoxicity rating SORHA ([18]; rate 63 g ai/ha)
0: phytotoxicity rating DIGSA ([21]; rate 63 g ai/ha)
95: crop damage rating SOY ([3]; rate 63 g ai/ha) | phytotoxicity rating SORHA ([18]; rate 500 g ai/ha) | phytotoxicity rating CHEAL ([19]; rate 63 g ai/ha) | phytotoxicity rating SETVI ([22]; rate 500 g ai/ha)
15: crop damage rating CORN ([2]; rate 63 g ai/ha)
100: crop damage rating SOY ([3]; rate 500 g ai/ha) | CHEAL phytotoxicity rating ([5]; Rate 125 g al/ha) | CHEAL phytotoxicity rating ([5]; Rate 500 g al/ha) | AMBEL phytotoxicity rating ([6]; Rate 125 g al/ha) | CASOB phytotoxicity rating ([7]; Rate 125 g al/ha) | CASOB phytotoxicity rating ([7]; Rate 500 g al/ha) | DIGSA phytotoxicity rating ([8]; Rate 500 g al/ha) | SETVI phytotoxicity rating ([9]; Rate 125 g al/ha) | SETVI phytotoxicity rating ([9]; Rate 500 g al/ha) | AMARE phytotoxicity rating ([11]; Rate 125 g al/ha) | AMARE phytotoxicity rating ([11]; Rate 500 g al/ha) | IPOHE phytotoxicity rating ([12]; Rate 125 g al/ha) | ABUTH phytotoxicity rating ([13]; Rate 125 g al/ha) | ABUTH phytotoxicity rating ([13]; Rate 500 g al/ha) | phytotoxicity rating CHEAL ([19]; rate 500 g ai/ha) | phytotoxicity rating CASOB ([20]; rate 63 g ai/ha) | phytotoxicity rating CASOB ([20]; rate 500 g ai/ha) | phytotoxicity rating AMARE ([24]; rate 500 g ai/ha) | phytotoxicity rating IPOHE ([25]; rate 63 g ai/ha) | phytotoxicity rating IPOHE ([25]; rate 500 g ai/ha) | phytotoxicity rating ABUTH ([26]; rate 63 g ai/ha) | phytotoxicity rating ABUTH ([26]; rate 500 g ai/ha)
80: crop damage rating RICE ([1]; rate 500 g ai/ha) | SOY crop damage rating ([17]; Rate 125 g al/ha) | SOY crop damage rating ([17]; Rate 500 g al/ha)
90: IPOHE phytotoxicity rating ([12]; Rate 500 g al/ha) | phytotoxicity rating AMBEL ([14]; rate 63 g ai/ha) | RICE crop damage rating ([15]; Rate 500 g al/ha) | phytotoxicity rating AMARE ([24]; rate 63 g ai/ha)

O=c1n(-c2cc(Oc3nccc(Cl)n3)c(Cl)cc2F)c(=S)n2n1CCCC2 [Compound 8-31]
5: crop damage rating RICE ([1]; rate 500 g ai/ha) | crop damage rating CORN ([2]; rate 63 g ai/ha)
20: SORHA phytotoxicity rating ([4]; Rate 500 g al/ha) | ECHCG phytotoxicity rating ([10]; Rate 500 g al/ha) | phytotoxicity rating ECHCG ([23]; rate 500 g ai/ha)
0: crop damage rating RICE ([1]; rate 63 g ai/ha) | SORHA phytotoxicity rating ([4]; Rate 125 g al/ha) | AMBEL phytotoxicity rating ([6]; Rate 500 g al/ha) | DIGSA phytotoxicity rating ([8]; Rate 125 g al/ha) | SETVI phytotoxicity rating ([9]; Rate 125 g al/ha) | ECHCG phytotoxicity rating ([10]; Rate 125 g al/ha) | IPOHE phytotoxicity rating ([12]; Rate 125 g al/ha) | RICE crop damage rating ([15]; Rate 125 g al/ha) | CORN crop damage rating ([16]; Rate 125 g al/ha) | CORN crop damage rating ([16]; Rate 500 g al/ha) | SOY crop damage rating ([17]; Rate 500 g al/ha) | phytotoxicity rating SORHA ([18]; rate 63 g ai/ha) | phytotoxicity rating CASOB ([20]; rate 63 g ai/ha) | phytotoxicity rating DIGSA ([21]; rate 63 g ai/ha) | phytotoxicity rating ECHCG ([23]; rate 63 g ai/ha)
50: phytotoxicity rating AMBEL ([14]; rate 63 g ai/ha) | phytotoxicity rating DIGSA ([21]; rate 500 g ai/ha)
10: crop damage rating CORN ([2]; rate 500 g ai/ha) | RICE crop damage rating ([15]; Rate 500 g al/ha) | phytotoxicity rating SETVI ([22]; rate 63 g ai/ha)
95: phytotoxicity rating AMBEL ([14]; rate 500 g ai/ha) | phytotoxicity rating CHEAL ([19]; rate 500 g ai/ha)
40: SOY crop damage rating ([17]; Rate 125 g al/ha) | phytotoxicity rating SETVI ([22]; rate 500 g ai/ha)
80: phytotoxicity rating CASOB ([20]; rate 500 g ai/ha) | phytotoxicity rating IPOHE ([25]; rate 63 g ai/ha) | phytotoxicity rating IPOHE ([25]; rate 500 g ai/ha)
70: crop damage rating SOY ([3]; rate 63 g ai/ha) | crop damage rating SOY ([3]; rate 500 g ai/ha) | DIGSA phytotoxicity rating ([8]; Rate 500 g al/ha) | IPOHE phytotoxicity rating ([12]; Rate 500 g al/ha) | phytotoxicity rating AMARE ([24]; rate 63 g ai/ha) | phytotoxicity rating ABUTH ([26]; rate 63 g ai/ha)
90: CHEAL phytotoxicity rating ([5]; Rate 125 g al/ha) | CASOB phytotoxicity rating ([7]; Rate 500 g al/ha) | SETVI phytotoxicity rating ([9]; Rate 500 g al/ha) | phytotoxicity rating CHEAL ([19]; rate 63 g ai/ha)
30: AMBEL phytotoxicity rating ([6]; Rate 125 g al/ha) | CASOB phytotoxicity rating ([7]; Rate 125 g al/ha) | phytotoxicity rating SORHA ([18]; rate 500 g ai/ha)
100: CHEAL phytotoxicity rating ([5]; Rate 500 g al/ha) | AMARE phytotoxicity rating ([11]; Rate 125 g al/ha) | AMARE phytotoxicity rating ([11]; Rate 500 g al/ha) | ABUTH phytotoxicity rating ([13]; Rate 125 g al/ha) | ABUTH phytotoxicity rating ([13]; Rate 500 g al/ha) | phytotoxicity rating AMARE ([24]; rate 500 g ai/ha) | phytotoxicity rating ABUTH ([26]; rate 500 g ai/ha)
